Publication PMC11714206, “Massively Parallel Screening of Toll/Interleukin‐1 Receptor (TIR)‐Derived Peptides Reveals Multiple Toll‐Like Receptors (TLRs)‐Targeting Immunomodulatory Peptides” (Advanced Science, 2024)
Values belong to the sequence of their own block, whether it stands above or below them.

Biological target: T1, MyD88^TIR (Homo sapiens, UniProt Q99836)
T1 construct: MyD88 (residues 148–296); 6xHis; made in house; host or cells: E. coli BL21 (DE3)
Experiment: T‐Surf phage library (P8 and P3) selection against MyD88^TIR, four rounds, NGS read counts
Format: binding
Conditions: for P8_MyD88 Rank (after) / P8_MyD88 Rank (before): P8 library; for Population: 4th round of selection against MyD88 TIR, share of NGS reads; for P3_MyD88 Rank (after) / P3_MyD88 Rank (before): P3 library
Method: T‐Surf libraries were screened against the immobilized TIR domains of two major human TLR adaptor proteins, MAL^TIR and MyD88^TIR, allowing cross‐species selection of TIR‐binding motifs with 190 946 TIR‐derived peptides in a single binding assay (Scheme 1). Enriched phage pools from the fourth round of selection were analyzed using NGS after barcoding the peptide‐coding regions of the phage pools.
Phage display screening was performed by coating two wells of a 96‐well plate (Maxisorp, Thermo Fisher Scientific) with 100 µL of 5 µg mL^−1 TIR domains overnight; then, the coated wells were blocked with 200 µL of blocking buffer (0.2% BSA in PBS) and set aside for 1 h at 4 °C with gentle shaking. Next, 100 µL of the phage library was added to the wells and incubated for 1 h at room temperature (RT; 20 – 22 °C) with gentle shaking. The plate was washed four times with PBS containing 0.5% Tween‐20; the bound phages were eluted by adding 100 µL of 100 mM HCl to each well. The elute was neutralized with 10 µL of 1.0 M Tris‐HCl (pH 11.0). E. coli TG1 cells were grown to the log phase (A600 = ≈0.6), and 1 mL of the culture was incubated with 100 µL of the eluted phages for 30 min at 37 °C, with shaking at 200 rpm. Next, 1 µL of M13KO7 helper phages was added, followed by incubation for 45 min at 37 °C, with shaking. Subsequently, the cells were transferred to 25 mL of 2× yeast extract tryptone/carbenicillin/kanamycin medium and incubated overnight at 37 °C with shaking at 200 rpm. The amplified phages were precipitated with 20% PEG‐8000/2.5 M NaCl to be used for the next round of selection.
The naïve T‐Surf libraries in P8 and P3 and the enriched phage pools after four rounds were barcoded for NGS as previously described.^[ [59] ^] Briefly, 5 µL of the phage pool was used as a template for 20 cycles of a 50 µL PCR reaction using […] each of forward and reverse barcoded primers and PrimeSTAR Max DNA Polymerase. The PCR products were purified using Expin Gel SV (GeneAll). The NGS samples were quantified using qPCR, following the qPCR Quantification Protocol Guide (KAPA Library Quantification kits for Illumina Sequencing Platform), and qualified using the TapeStation High Sensitivity D1000 ScreenTape (Agilent Technologies). The indexed libraries were further sequenced by Macrogen (Seoul, Republic of Korea) using the NovaSeq platform (Illumina) with 100 bp paired‐end reads. The reads were demultiplexed by barcodes and filtered for an average Phred quality score of at least 30, followed by trimming the flanking consensus sequences using Cutadapt (version 2.3). Peptide sequence populations were analyzed according to the read counts.

[1] = P8_MyD88: rank by count after grouping
[2] = P8_MyD88: rank by count before grouping
[3] = 4R selection against MyD88, rank after grouping
[4] = 4R selection against MyD88, rank before grouping
[5] = P3_MyD88: rank by count after grouping
[6] = P3_MyD88: rank by count before grouping
[7] = P8_MyD88 pool: P8 T-Surf phage library
[8] = selection against MyD88, rank by count after grouping
[9] = selection against MyD88, rank by count before grouping
[10] = selection against MyD88, rank after grouping
[11] = selection against MyD88, rank before grouping
[12] = P8_MyD88: rank by NGS read count after grouping
[13] = P8_MyD88: rank by NGS read count before grouping
[14] = selection against MyD88 TIR, rank by count after grouping
[15] = selection against MyD88 TIR, rank by count before grouping

T1 sequence (Q99836 148-296): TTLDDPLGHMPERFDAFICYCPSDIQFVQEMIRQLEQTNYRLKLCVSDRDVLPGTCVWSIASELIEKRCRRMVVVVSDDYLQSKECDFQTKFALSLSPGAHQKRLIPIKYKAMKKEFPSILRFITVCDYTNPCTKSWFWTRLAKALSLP

Sequence: LGYRWIVWEYFVGIED
Rank (after) [1]: 400
Rank (before) [2]: 3224

Sequence: LGYHWIVWEYLVGIKD
P8_MyD88 Rank (after) [3]: 652
P8_MyD88 Rank (before) [4]: 3245

Sequence: YRKWGYLRIWDRWRFA
Rank (after) [5]: 411
Rank (before) [6]: 1613

Sequence: SSFREGPWRLLELSKN
P3_MyD88 Rank (after) [3]: 609
P3_MyD88 Rank (before) [4]: 3217

Sequence: SDLRVVDDGSVSPLAM
P3_MyD88 Rank (after) [8]: 711
P3_MyD88 Rank (before) [9]: 3005

Sequence: YTALTNSGFSEENLF
P3_MyD88 Rank (after) [3]: 668
P3_MyD88 Rank (before) [4]: 1683

Sequence: DPQDLDWFYECPVSMF
P8_MyD88 Rank (after) [10]: 535
P8_MyD88 Rank (before) [11]: 2754

Sequence: LKVESWRQALEKAGKLRYAM
P3_MyD88 Rank (after) [8]: 707
P3_MyD88 Rank (before) [9]: 2496

Sequence: LEYRWIDWEYFVGLED
Rank (after) [12]: 886
Rank (before) [13]: 3357

Sequence: SSYRESLRRLPALSKK
P3_MyD88 Rank (after) [8]: 739
P3_MyD88 Rank (before) [9]: 3266

Sequence: WALVELLHIRHARELF
P8_MyD88 Rank (after) [8]: 709
P8_MyD88 Rank (before) [9]: 1405

Sequence: GSFRESLWRLLELSKK
Rank (after) [5]: 465
Rank (before) [6]: 1859

Sequence: SRYREGLWRLLELSKK
Rank (after) [5]: 123
Rank (before) [6]: 3109

Sequence: DHHLDLPRGKAIKPEILG
P8_MyD88 Rank (after) [8]: 757
P8_MyD88 Rank (before) [9]: 3049

Sequence: DWVWDYLLPNLEGPG
P8_MyD88 Rank (after) [14]: 260
P8_MyD88 Rank (before) [15]: 1038

Sequence: YKLALHFRDWLVGVH
Rank (after) [12]: 901
Rank (before) [13]: 2137

Sequence: WDFASNMEQLLDRLYY
Rank (after) [1]: 406
Rank (before) [2]: 1626

Sequence: IVQEQDGFWVRLIEAL
P8_MyD88 Rank (after) [3]: 616
P8_MyD88 Rank (before) [4]: 3611

Sequence: FISDLYEALTRAGILA
Rank (after) [12]: 964
Rank (before) [13]: 1341

Sequence: DPQGLAWFYERLVSLL
Rank (after) [1]: 443
Rank (before) [2]: 2664

Sequence: LLAHEISKNMKIFATI
P3_MyD88 Rank (after) [10]: 523
P3_MyD88 Rank (before) [11]: 2262

Sequence: DWVYNELIAHLENTEH
P8_MyD88 Rank (after) [14]: 204
P8_MyD88 Rank (before) [15]: 306

Sequence: LVAHRMSKKMKNVATI
P3_MyD88 Rank (after) [10]: 513
P3_MyD88 Rank (before) [11]: 2316

Now from value to sequence:

Rank (after) [1]: 149
Rank (before) [2]: 168
Population [7]: 0.00848%
Sequence: WALQELLEILKANREL

Population (P3_MyD88 pool: P3 T-Surf phage library): 0.00291%
Sequence: DHHLDLPRGKAIKPVILG

P3_MyD88 Rank (after) [3]: 627
P3_MyD88 Rank (before) [4]: 3103
Sequence: SRDYATSPWALDELLR

P8_MyD88 Rank (after) [3]: 638
P8_MyD88 Rank (before) [4]: 1808
Sequence: YASYDDNDYYWVTHVLLSR

P3_MyD88 Rank (after) [8]: 722
P3_MyD88 Rank (before) [9]: 1998
Sequence: DHHLDLLRGIAIKLEILG

Rank (after) [5]: 476
Rank (before) [6]: 2449
Sequence: LKWGEPYFCSKLRYAM

Rank (after) [5]: 438
Rank (before) [6]: 3282
Sequence: SNFREGLWRQQELSKK

Rank (after) [1]: 171
Rank (before) [2]: 192
Population [7]: 0.00617%
Sequence: YYDSRWALDELLKILYANETM

Rank (after) [5]: 94
Rank (before) [6]: 1214
Sequence: SSLREGLWPLLELSKK

Rank (after) [12]: 931
Rank (before) [13]: 1850
Sequence: YASSWWALEELLQILHARELF

P3_MyD88 Rank (after) [14]: 255
P3_MyD88 Rank (before) [15]: 1460
Sequence: YYLDPSHLRKQSGESE

Rank (after) [1]: 173
Rank (before) [2]: 198
Sequence: EDTLIRLLVQRIMKEL

P8_MyD88 Rank (after) [8]: 766
P8_MyD88 Rank (before) [9]: 1477
Sequence: WALDELLKILCANKTM

P8_MyD88 Rank (after) [8]: 716
P8_MyD88 Rank (before) [9]: 3426
Sequence: PQDLDWFYERLVSQM

Rank (after) [1]: 422
Rank (before) [2]: 2764
Sequence: DPQDLDWFYERLLSLS

P8_MyD88 Rank (after) [3]: 612
P8_MyD88 Rank (before) [4]: 1716
Sequence: YAASPWWFYERVEILG

Rank (after) [1]: 170
Rank (before) [2]: 200
Sequence: LTEEIVNHILKRLAEL

P8_MyD88 Rank (after) [3]: 647
P8_MyD88 Rank (before) [4]: 2457
Sequence: DWVWDELLKILYANETM
